Five compounds from ChEMBL document CHEMBL4433234, “3H-Imidazo[4,5-b]pyridine-6-carboxylic acid derivatives as rexinoids with reduced teratogenicity” (Bioorg Med Chem Lett, 2019) can be followed below.

Data set [1] is described as follows: Aqueous solubility in pH 7.4 PBS buffer at 1 mM after 6 hrs by HPLC analysis. It is filed as physicochemical.
A short description of data set [2]: Toxicity in fertilized zebra fish embryos assessed as survival rate at 100 nM incubated for 120 hrs post fertilization by microscopic method relative to untreated control (reference value: 100%). Set-up: species or system Danio rerio. The following applies: zebrafish.
The nature of data set [3]: Toxicity in fertilized zebra fish embryos assessed as survival rate at 300 nM incubated for 120 hrs post fertilization by microscopic method relative to untreated control (reference value: 100%). Set-up: species or system Danio rerio. Conditions: zebrafish.
Data set [4] can be described thus: Toxicity in fertilized zebra fish embryos assessed as survival rate at 1000 nM incubated for 120 hrs post fertilization by microscopic method relative to untreated control (reference value: 100%). Set-up: species or system Danio rerio. Conditions: zebrafish.
The nature of data set [5]: Toxicity in fertilized zebra fish embryos assessed as hatching rate at 100 nM incubated for 120 hrs post fertilization by microscopic method relative to untreated control (reference value: 100%). The following applies: zebrafish, 0.1 µM. Set-up: species or system Danio rerio.
Data set [6] is described as follows: Toxicity in fertilized zebra fish embryos assessed as hatching rate at 287 nM incubated for 120 hrs post fertilization by microscopic method relative to untreated control (reference value: 100%). Set-up: species or system Danio rerio. Conditions: zebrafish, 0.287 µM.
Data set [7] can be described thus: Toxicity in fertilized zebra fish embryos assessed as survival rate at 287 nM incubated for 120 hrs post fertilization by microscopic method relative to untreated control (reference value: 100%). Set-up: species or system Danio rerio. The following applies: zebrafish.
Data set [8] can be described thus: Toxicity in fertilized zebra fish embryo assessed as teratogenic effect by measuring malformation of spine curvature and head enlargement at 100 nM after 120 hrs post fertilization by microscopic method relative to control. Set-up: species or system Danio rerio. Conditions: zebrafish, 0.1 µM.
Data set [9] in a line: Toxicity in fertilized zebra fish embryos assessed as hatching rate at 1000 nM incubated for 120 hrs post fertilization by microscopic method relative to untreated control (reference value: 100%). Set-up: species or system Danio rerio. Conditions: zebrafish, 1 µM.
A short description of data set [10]: Toxicity in fertilized zebra fish embryo assessed as teratogenic effect by measuring malformation of spine curvature and head enlargement at 1000 nM after 120 hrs post fertilization by microscopic method relative to control. Set-up: species or system Danio rerio. Conditions: zebrafish, 1 µM.
Data set [11] can be described thus: Toxicity in fertilized zebra fish embryos assessed as hatching rate at 300 nM incubated for 120 hrs post fertilization by microscopic method relative to untreated control (reference value: 100%). Set-up: species or system Danio rerio. The following applies: zebrafish, 0.3 µM.
Data set [12] can be described thus: Toxicity in fertilized zebra fish embryo assessed as teratogenic effect by measuring malformation of spine curvature and head enlargement at 300 nM after 120 hrs post fertilization by microscopic method relative to control. Set-up: species or system Danio rerio. The following applies: zebrafish, 0.3 µM.
Data set [13] has as its target T1, Retinoic acid receptor RXR-alpha (Homo sapiens, UniProt P19793).
T1 sequence (P19793 whole entry): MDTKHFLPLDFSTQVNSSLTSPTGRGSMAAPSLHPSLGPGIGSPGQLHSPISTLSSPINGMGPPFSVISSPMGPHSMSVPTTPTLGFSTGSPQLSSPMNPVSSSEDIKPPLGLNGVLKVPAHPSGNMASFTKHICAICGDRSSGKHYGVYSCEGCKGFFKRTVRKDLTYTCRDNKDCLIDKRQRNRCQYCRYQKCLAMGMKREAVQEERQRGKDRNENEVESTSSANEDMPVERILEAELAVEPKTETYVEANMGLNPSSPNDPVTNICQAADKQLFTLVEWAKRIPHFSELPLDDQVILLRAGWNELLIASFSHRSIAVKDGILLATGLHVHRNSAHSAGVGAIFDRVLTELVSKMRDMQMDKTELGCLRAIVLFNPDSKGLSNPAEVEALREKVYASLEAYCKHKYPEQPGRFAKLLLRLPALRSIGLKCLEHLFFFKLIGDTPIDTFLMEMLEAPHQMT
Put plainly: Agonist activity at human RXRalpha expressed in African green monkey COS1 cells harboring CRBP2-tk-luc reporter incubated for 18 hrs by steady-glo luciferase reporter gene assay. It is filed as cell-based.

Data set [14] in a line: Toxicity in fertilized zebra fish embryo assessed as induction of malformation of spine curvature at 1000 nM after 120 hrs post fertilization by microscopic method relative to control. The following applies: zebrafish, 1 µM. Set-up: species or system Danio rerio.

Structures are written as SMILES. Converted amounts (≈) assume the structure as drawn.

With `Cc1cc2c(cc1-n1nnc3cc(C(=O)O)ccc31)C(C)(C)CCC2(C)C`, in [1], the solubility (as a rule, how much of the substance goes into solution per volume) at 6 h, 1000 µM is 305 µM (≈ 111 µg/mL). Further, the survival at 120 h, 0.1 µM in [2] turned out to be 100%. Besides, the survival at 120 h, 0.3 µM in [3] is 100%. Further, in [4], the survival at 120 h, 1 µM amounted to 100%.
With `C=C(c1ccc(C(=O)O)cc1)c1cc2c(cc1C)C(C)(C)CCC2(C)C` [BEXAROTENE], the values for the Activity in [5], in data set [6] and in data set [8] were 67 to 100%, 99% and 100%, respectively. This compound showed a solubility at 6 h, 1000 µM in data set [1] of 0.25 µM (≈ 0.0871 µg/mL). The survival at 120 h, 0.1 µM in [2] was 100%. For the same compound, the survival at 120 h, 0.287 µM in data set [7] came out at 99%.
Regarding `Cc1cc2c(cc1-n1c(C(F)(F)F)nc3cc(C(=O)O)ccc31)C(C)(C)CCC2(C)C`, the Activity in data set [5] is listed as 83%; in data set [9] it was 100%; in data set [10], 17%; in [11] it was 92%; in data set [12], 0%; in data set [8], 0%. This compound had a solubility at 6 h, 1000 µM in [1] of 12.8 µM (≈ 5.51 µg/mL). In addition, the survival at 120 h, 0.1 µM in data set [2] turned out to be 100%. The survival at 120 h, 0.3 µM in data set [3] turned out to be 100%. In addition, in data set [4], the survival at 120 h, 1 µM was 100%.
On to `Cc1cc2c(cc1-n1c(C(F)(F)F)nc3cc(C(=O)O)cnc31)C(C)(C)CCC2(C)C`, for which the Activity is 92% in data set [5]; 83% in [9]; 10% in data set [10]; 100% in data set [11]; “Non-Toxic” in data set [14]; 0% in data set [12]. Further, the Activity in [8] came to 0%. Besides, the EC50 (commonly the midpoint of the concentration-response curve) in data set [13] worked out at 670 nM. In data set [1], this compound registered a solubility at 6 h, 1000 µM of 222 µM (≈ 95.8 µg/mL). Besides, in data set [2], the survival at 120 h, 0.1 µM stood at 100%. In addition, in data set [3], the survival at 120 h, 0.3 µM is 100%. Further, the survival at 120 h, 1 µM in [4] is 100%.
For `Cc1cc2c(cc1-n1nnc3cc(C(=O)O)cnc31)C(C)(C)CCC2(C)C`, the Activity in data set [5] is reported as 100%; in [9], 100%; in data set [10], 25%; in data set [11], 100%; in data set [14] it was “Toxic”; in data set [12], 0%. Moreover, the Activity in data set [8] was 0%. For the same compound, a half-maximal effect in data set [13] (EC50) was put at 275 nM. Also, the concentration in solution in data set [1] (solubility at 6 h, 1000 µM) came to 670 µM (≈ 244 µg/mL). Also, the survival at 120 h, 0.1 µM in data set [2] is 100%. Also, the survival at 120 h, 0.3 µM in [3] turned out to be 100%. Also, the survival at 120 h, 1 µM in data set [4] amounted to 100%.
